Reference: ChEMBL document CHEMBL4145553, “Design, synthesis, and biological evaluation of novel amide and hydrazide based thioether analogs targeting Histone deacteylase (HDAC) enzymes” (Eur J Med Chem, 2018)

Columns and labels:
[1] = tested on: SK-OV-3; test: Growth inhibition of human SKOV3 cells at 10 uM incubated for 48 hrs by sulforhodamine B assay relative to control; format: functional; conditions: SK-OV-3, 48 h, values are per cent of control
[2] = tested on: K562; test: Growth of human K562 cells at 10 uM incubated for 48 hrs by sulforhodamine B assay relative to control; conditions: K562, 48 h
[3] = tested on: UACC-62; test: Growth of human UACC62 cells at 10 uM incubated for 48 hrs by sulforhodamine B assay relative to control; conditions: UACC-62, 48 h
[4] = tested on: T47D; test: Growth inhibition of human T47D cells at 10 uM incubated for 48 hrs by sulforhodamine B assay relative to control; format: functional; conditions: values are per cent of control
[5] = tested on: IGROV-1; test: Growth of human IGROV1 cells at 10 uM incubated for 48 hrs by sulforhodamine B assay relative to control; conditions: IGROV-1, 48 h
[6] = tested on: SF-539; test: Growth of human SF539 cells at 10 uM incubated for 48 hrs by sulforhodamine B assay relative to control; conditions: SF-539, 48 h
[7] = tested on: NCI-H522; test: Growth of human NCI-H522 cells at 10 uM incubated for 48 hrs by sulforhodamine B assay relative to control; conditions: NCI-H522, 48 h
[8] = tested on: DU-145; test: Growth inhibition of human DU145 cells at 10 uM incubated for 48 hrs by sulforhodamine B assay relative to control; format: functional; conditions: DU-145, 48 h, values are per cent of control
[9] = tested on: SF-268; test: Growth of human SF268 cells at 10 uM incubated for 48 hrs by sulforhodamine B assay relative to control; conditions: SF-268, 48 h
[10] = tested on: COLO 205; test: Growth of human COLO205 cells at 10 uM incubated for 48 hrs by sulforhodamine B assay relative to control; conditions: COLO 205, 48 h
[11] = tested on: UACC-257; test: Growth of human UACC257 cells at 10 uM incubated for 48 hrs by sulforhodamine B assay relative to control; conditions: UACC-257, 48 h
[12] = tested on: HOP-92; test: Growth inhibition of human HOP92 cells at 10 uM incubated for 48 hrs by sulforhodamine B assay relative to control; format: functional; conditions: HOP-92, 48 h, values are per cent of control
[13] = tested on: OVCAR-4; test: Growth of human OVCAR4 cells at 10 uM incubated for 48 hrs by sulforhodamine B assay relative to control; conditions: OVCAR-4, 48 h
[14] = tested on: NCI-H23; test: Growth inhibition of human NCI-H23 cells at 10 uM incubated for 48 hrs by sulforhodamine B assay relative to control; format: functional; conditions: NCI-H23, 48 h, values are per cent of control
[15] = tested on: EKVX; test: Growth of human EKVX cells at 10 uM incubated for 48 hrs by sulforhodamine B assay relative to control
[16] = tested on: NCI/ADR-RES; test: Growth inhibition of human NCI/ADR-RES cells at 10 uM incubated for 48 hrs by sulforhodamine B assay relative to control; format: functional; conditions: values are per cent of control
[17] = tested on: LOX IMVI; test: Growth of human LOXIMVI cells at 10 uM incubated for 48 hrs by sulforhodamine B assay relative to control
[18] = tested on: TK-10; test: Growth inhibition of human TK10 cells at 10 uM incubated for 48 hrs by sulforhodamine B assay relative to control; format: functional; conditions: TK-10, 48 h, values are per cent of control
[19] = tested on: PC-3; test: Growth inhibition of human PC3 cells at 10 uM incubated for 48 hrs by sulforhodamine B assay relative to control; format: functional; conditions: PC-3, 48 h, values are per cent of control
[20] = tested on: MDA-MB-231; test: Growth inhibition of human MDA-MB-231 cells at 10 uM incubated for 48 hrs by sulforhodamine B assay relative to control; format: functional; conditions: MDA-MB-231, 48 h, values are per cent of control
[21] = tested on: HCT-116; test: Growth of human HCT116 cells at 10 uM incubated for 48 hrs by sulforhodamine B assay relative to control; conditions: HCT-116, 48 h
[22] = tested on: OVCAR-3; test: Growth of human OVCAR3 cells at 10 uM incubated for 48 hrs by sulforhodamine B assay relative to control; conditions: OVCAR-3, 48 h
[23] = tested on: NCI-H322M; test: Growth inhibition of human NCI-H322M cells at 10 uM incubated for 48 hrs by sulforhodamine B assay relative to control; format: functional; conditions: values are per cent of control
[24] = tested on: MCF7; test: Growth inhibition of human MCF7 cells at 10 uM incubated for 48 hrs by sulforhodamine B assay relative to control; format: functional; conditions: MCF7, 48 h, values are per cent of control
[25] = tested on: HL-60(TB); test: Growth inhibition of human HL-60(TB) cells at 10 uM incubated for 48 hrs by sulforhodamine B assay relative to control; format: functional; conditions: HL-60, 48 h, values are per cent of control
[26] = tested on: HT-29; test: Growth of human HT-29 cells at 10 uM incubated for 48 hrs by sulforhodamine B assay relative to control; conditions: HT-29, 48 h
[27] = tested on: SW-620; test: Growth of human SW620 cells at 10 uM incubated for 48 hrs by sulforhodamine B assay relative to control; conditions: SW-620, 48 h
[28] = tested on: RXF 393; test: Growth inhibition of human RXF393 cells at 10 uM incubated for 48 hrs by sulforhodamine B assay relative to control; format: functional; conditions: RXF 393, 48 h, values are per cent of control
[29] = tested on: SR; test: Growth of human SR cells at 10 uM incubated for 48 hrs by sulforhodamine B assay relative to control
[30] = tested on: SF-295; test: Growth of human SF295 cells at 10 uM incubated for 48 hrs by sulforhodamine B assay relative to control; conditions: SF-295, 48 h
[31] = tested on: CAKI-1; test: Growth inhibition of human Caki1 cells at 10 uM incubated for 48 hrs by sulforhodamine B assay relative to control; format: functional; conditions: CAKI-1, 48 h, values are per cent of control
[32] = tested on: SK-MEL-28; test: Growth of human SK-MEL-28 cells at 10 uM incubated for 48 hrs by sulforhodamine B assay relative to control; conditions: SK-MEL-28, 48 h
[33] = tested on: UO-31; test: Growth inhibition of human UO31 cells at 10 uM incubated for 48 hrs by sulforhodamine B assay relative to control; format: functional; conditions: UO-31, 48 h, values are per cent of control
[34] = tested on: SNB-75; test: Growth of human SNB75 cells at 10 uM incubated for 48 hrs by sulforhodamine B assay relative to control; conditions: SNB-75, 48 h

Row | Compound | growth, % of control at 10 µM [1] [%] | growth, % of control at 10 µM [2] [%] | growth, % of control at 10 µM [3] [%] | growth, % of control at 10 µM [4] [%] | growth, % of control at 10 µM [5] [%] | growth, % of control at 10 µM [6] [%] | growth, % of control at 10 µM [7] [%] | growth, % of control at 10 µM [8] [%] | growth, % of control at 10 µM [9] [%] | growth, % of control at 10 µM [10] [%] | growth, % of control at 10 µM [11] [%] | growth, % of control at 10 µM [12] [%] | growth, % of control at 10 µM [13] [%] | growth, % of control at 10 µM [14] [%] | growth, % of control at 10 µM [15] [%] | growth, % of control at 10 µM [16] [%] | growth, % of control at 10 µM [17] [%] | growth, % of control at 10 µM [18] [%] | growth, % of control at 10 µM [19] [%] | growth, % of control at 10 µM [20] [%] | further results
1 | CCS/C(Nc1ccccc1)=C(\C#N)C(=O)N/N=C\c1ccc(Cl)cc1Cl | 15.5 | 7.35 | 26.6 | 17.8 | 49.1 | 4.25 | 1.02 | 20 | 34 | 28.4 | 51.9 | 29.2 | 56.5 | 41.3 | 47.4 | 10.8 | 34.4 | 56.7 | 31.5 | 39 | growth, % of control at 10 µM [21]: 17.5%; growth, % of control at 10 µM [22]: 1.46%; growth, % of control at 10 µM [23]: 70.9%; growth, % of control at 10 µM [24]: 19.3%; growth, % of control at 10 µM [25]: -31.4%; growth, % of control at 10 µM [26]: 9.53%; growth, % of control at 10 µM [27]: 18.6%; growth, % of control at 10 µM [28]: 2.63%; growth, % of control at 10 µM [29]: 19.5%; growth, % of control at 10 µM [30]: 17%; growth, % of control at 10 µM [31]: 31.5%; growth, % of control at 10 µM [32]: 60.5%; growth, % of control at 10 µM [33]: 41.9%; growth, % of control at 10 µM [34]: -6.89%
2 | CCS/C(Nc1ccccc1)=C(\C#N)C(=O)Nc1ccccc1 | 88.2 | 89.9 | 79.8 | 70.1 | 105 | 104 | 65.7 | 102 | 91.2 | 113 | 103 | 53 | 102 | 94.3 | 100 | 91.1 | 97.9 | 76.7 | 92.4 | 94.2 | growth, % of control at 10 µM [21]: 92.7%; growth, % of control at 10 µM [22]: 88.9%; growth, % of control at 10 µM [23]: 97.2%; growth, % of control at 10 µM [24]: 98.6%; growth, % of control at 10 µM [25]: 58.1%; growth, % of control at 10 µM [26]: 88.2%; growth, % of control at 10 µM [27]: 103%; growth, % of control at 10 µM [28]: 101%; growth, % of control at 10 µM [29]: 70.3%; growth, % of control at 10 µM [30]: 91.3%; growth, % of control at 10 µM [31]: 87.5%; growth, % of control at 10 µM [32]: 112%; growth, % of control at 10 µM [33]: 76%; growth, % of control at 10 µM [34]: 102%
